Measurements published in article PMC6045348 (ACS Omega, 2018).

Target: Ser–Thr PP-1 catalytic subunit (PP1c) (Oryctolagus cuniculus, UniProt P62139)
Experiment: DiFMUP fluorescence phosphatase assay, residual activity […] at […]
Type: biochemical

Chain of Ser–Thr PP-1 catalytic subunit (PP1c) (P62139 2-330): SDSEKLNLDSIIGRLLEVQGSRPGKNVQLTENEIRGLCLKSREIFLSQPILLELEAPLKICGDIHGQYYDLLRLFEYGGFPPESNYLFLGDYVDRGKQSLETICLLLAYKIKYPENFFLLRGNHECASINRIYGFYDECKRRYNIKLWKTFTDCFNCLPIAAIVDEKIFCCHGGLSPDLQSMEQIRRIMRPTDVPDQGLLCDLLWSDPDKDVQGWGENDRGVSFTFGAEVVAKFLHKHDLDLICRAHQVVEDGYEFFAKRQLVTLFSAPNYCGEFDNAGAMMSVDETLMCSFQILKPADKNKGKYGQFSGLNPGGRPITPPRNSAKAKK

IC50: ~10 µM
Structure (SMILES): CN1C[C@@H](c2c[nH]c3cc(Br)ccc23)NC[C@@H]1c1c[nH]c2cc(Br)ccc12 [compound 3, dragmacidin A]
